Data on two molecules can be found in patent publication US20040147578A1, “Use of lipoaminoacids as absorption promoters in a pharmaceutical composition” (priority 2001, published 2004).

This data set in a line: In vitro permeation study in Franz cell. The data set is classed as in vitro ADME. The conditions noted are these: receiver pH 7.4.

Source text: These studies have been carried out using the most commonly used model in in vitro permeation studies. It is the Franz cell which is made up of two compartments separated by a membrane:
a donor compartment in which the composition to be studied is placed,
a membrane preimpregnated with a lipidic solution, made up of a mixture of phospholipids,
a receiver compartment containing an aqueous solution buffered at pH 7.4 under constant agitation, in which the active principle is recovered at regular intervals. Depending on the case, the composition of the medium can vary with the physico-chemical characteristics of the molecule.
These permeation studies were carried out by comparing each dispersed system comprising the lipoamino acid(s) with a simple solution of active principle.
The permeation expresses an active principle quantity which diffuses through a membrane per unit of surface and time (μg/cm^2/h).

For the molecule `Nc1nc2c(ncn2COCCO)c(=O)[nH]1` [Aciclovir], the Permeation is listed as 0 μg/cm^2/h (time 0 hours, aciclovir, topical-route system of Example 6 vs simple solution of active principle); 2.35 μg/cm^2/h (time 1 hour, aciclovir, topical-route system of Example 6 vs simple solution of active principle); 4.65 μg/cm^2/h (time 2 hours, aciclovir, topical-route system of Example 6 vs simple solution of active principle); 5.80 μg/cm^2/h (time 3 hours, aciclovir, topical-route system of Example 6 vs simple solution of active principle).

As for `CC(=O)[C@H]1CC[C@H]2[C@@H]3CCC4=CC(=O)CC[C@]4(C)[C@H]3CC[C@]12C` [Progesterone], the Permeation was 0 μg/cm^2/h (time 0 hours, progesterone, oral-route system of Example 3 vs simple solution of active principle); 0 μg/cm^2/h (time 0 hours, progesterone, transdermic-route system of Example 4 vs simple solution of active principle); 0.2 μg/cm^2/h (time 1 hour, progesterone, oral-route system of Example 3 vs simple solution of active principle); 0.25 μg/cm^2/h (time 1 hour, progesterone, transdermic-route system of Example 4 vs simple solution of active principle); 0.4 μg/cm^2/h (time 2 hours, progesterone, oral-route system of Example 3 vs simple solution of active principle); 0.43 μg/cm^2/h (time 2 hours, progesterone, transdermic-route system of Example 4 vs simple solution of active principle). The same molecule yielded a Permeation (time 3 hours, progesterone, oral-route system of Example 3 vs simple solution of active principle) of 0.8 μg/cm^2/h and a Permeation (time 3 hours, progesterone, transdermic-route system of Example 4 vs simple solution of active principle) of 0.85 μg/cm^2/h.
